Experimental data reported in PMC6155272, “Chroman-4-One Derivatives Targeting Pteridine Reductase 1 and Showing Anti-Parasitic Activity” (Molecules : A Journal of Synthetic Chemistry and Natural …, 2017).

Assays:
[1] = target: T1, Trypanosoma brucei pteridine reductase 1 (TbPTR1) (Trypanosoma brucei brucei, UniProt O76290); conditions: flavonols 1A–3A, cited from earlier work; for IC50: evaluated as in previous paper
T1 construct: made in house
T1 sequence (O76290 1-268): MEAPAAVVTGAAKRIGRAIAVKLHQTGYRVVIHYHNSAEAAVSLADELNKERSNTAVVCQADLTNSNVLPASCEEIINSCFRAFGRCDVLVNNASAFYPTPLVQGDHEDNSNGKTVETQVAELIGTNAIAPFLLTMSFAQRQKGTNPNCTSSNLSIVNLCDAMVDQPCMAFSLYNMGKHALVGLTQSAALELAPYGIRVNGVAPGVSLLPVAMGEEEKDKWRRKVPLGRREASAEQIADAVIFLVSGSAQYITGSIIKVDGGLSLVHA

[2] = target: T2, Leishmania major pteridine reductase 1 (LmPTR1) (Leishmania major, UniProt Q01782); conditions: flavonols 1A–3A, cited from earlier work; for IC50: evaluated as in previous paper
T2 construct: made in house
T2 sequence (Q01782 1-288): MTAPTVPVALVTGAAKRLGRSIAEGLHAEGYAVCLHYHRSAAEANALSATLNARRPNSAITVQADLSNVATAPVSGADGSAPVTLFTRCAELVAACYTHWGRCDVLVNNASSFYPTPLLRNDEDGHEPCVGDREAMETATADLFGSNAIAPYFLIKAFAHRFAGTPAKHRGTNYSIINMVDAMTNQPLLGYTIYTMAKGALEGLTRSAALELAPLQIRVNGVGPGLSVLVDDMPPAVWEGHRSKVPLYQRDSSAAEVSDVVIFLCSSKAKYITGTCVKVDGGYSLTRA

[3] = target: T1, Trypanosoma brucei pteridine reductase 1 (TbPTR1); test: TbPTR1 enzyme reporter assay (cytochrome-c reduction, 550 nm); format: biochemical; conditions: read-out: % Inhibition TbPTR1 (50 μM), 50 μM; compounds 1–3 and control
Method: (§1) TbPTR1 and LmPTR1 were purified as reported in literature. The enzyme kinetic profile of each selected protein was characterized by a spectrophotometric assay. The experimental assay consists of enzyme kinetic reaction monitoring at 340 nm for a total time of 180 s. The enzyme kinetic activity was measured at steady-state concentration of 7,8-dihydro-L-biopterin (H2B) and NADPH substrates equal to 50 and 120 µM and varying the enzyme concentration in the 0.001–0.006 µM and 0.005–0.010–0.015–0.020–0.025–0.030 µM range for Lm- and TbPTR1, respectively. The resulting kcat values were equal to 0.68 (s^−1) and 7.2 (s^−1) for Tb- and LmPTR1, respectively. For both TbPTR1 and LmPTR1, the Km value evaluation assay for H2B- and NADPH-substrates was performed in the 0.3-0.6–0.9–1.2–2.4–4.8 µM and 3.0–6.0–12.0–40.0–90.0–190.0 µM concentrations range, respectively.
(§2) Compounds 1A–3A were evaluated as reported in our previous paper. The novel synthesized compounds 1–3 were tested towards TbPTR1 and LmPTR1 using the in vitro TbPTR1/LmPTR1 enzyme reporter assay. The experimental procedure consists of monitoring the non-enzymatic reduction reaction of cytochrome-c at 550 nm, related to the reduction reaction of H2B to tetrahydrobiopterin (H4B) by using NADPH as the cofactor. TbPTR1 and LmPTR1 enzyme activity was assayed in a buffer containing 20 mM sodium citrate (pH 6.0) in a final experimental volume equal to 600 µL. The final reaction mixture contained different substrates added in the following order: TbPTR1/LmPTR1 (0.018 µM/0.002 µM) in 20 mM Tris-HCl, glycerol 10% (v/v), pH 7.5; H2B at a final concentration equal to 0.3 µM; cytochrome-c (80 µM); Milli-Q water to a final volume of 600 µL and NADPH to a final concentration of 500 µM. Before the addition of NADPH, the reaction mixture was incubated for 10 min at 30 °C and 80 RPM. To allow the starting of the reaction, NADPH was added and the enzyme reaction was detected for a total time of 10 min at 30 °C, 550 nm. The inhibition profile characterization of compounds 1–3 was performed with a DU-640 spectrophotometer (Beckman Coulter, Brea, CA, USA). Each compound was assayed in duplicate against Tb/LmPTR1 target enzymes in the 0–10–25–50–80–150 µM concentrations range. At the different concentration values, the compounds were added to the reaction mixture (enzyme, H2B, cytochrome-c in 20 mM sodium citrate buffer and Milli-Q water) and incubated for 10 min at 30 °C, 80 RPM. The reaction was initiated by the addition of NADPH (500 µM) and monitored for 10 min at 30 °C, 550 nm. The absorbance values were processed by software analysis and transformed into the corresponding slopes. The percentages of inhibition and the IC50 values were determined.

[4] = target: T2, Leishmania major pteridine reductase 1 (LmPTR1); test: LmPTR1 enzyme reporter assay (cytochrome-c reduction, 550 nm); format: biochemical; conditions: read-out: % Inhibition LmPTR1 (50 μM)
Method: as §1, §2

[5] = system: T. brucei bloodstream forms; test: Activity against T. brucei bloodstream forms (resazurin-based assay); format: cell-based, Trypanosoma brucei; conditions: Trypanosoma brucei; read-out: IC50 (reference compound for T. brucei)
Method: The efficacy of compounds against T. brucei bloodstream forms was evaluated using a modified resazurin-based assay previously described in literature.

[6] = system: L. infantum (MHOM/BR/1972/BH46) intracellular amastigotes; test: Activity against L. infantum intramacrophage amastigotes (high-content imaging); format: cell-based, Leishmania infantum; conditions: Leishmania infantum; read-out: IC50 (reference compound for L. infantum)
Method: […] THP-1 cells were plated onto 384-well plates in Roswell Park Memorial Institute (RPMI) 1640 medium, Hyclone, GE Healthcare Life Sciences (Issaquah, WA, USA) containing 50 ng/mL phorbol 12-myristate 13-acetate (PMA, Sigma-Aldrich, Saint Louis, MS, USA), and incubated for 48 h. Then, 6 day-old promastigotes were added, at a ratio of 50 parasites per each THP-1 cell seeded earlier. After 24 h of infection, negative controls (0.5% DMSO), positive controls (10 μM amphotericin B) or compounds were added to the plate. Assay plates were incubated for 48 h, and then fixed with 4% paraformaldehyde and stained with Draq 5. The Operetta high-content automated imaging system was used to acquire images and the Harmony Software was optimized to quantify the host cell number, the infection ratio and the number of parasites per infected cell. The ratio between infected cells and total number of cells is then calculated, and defined as the Infection Ratio (IR). The raw data for IR values was normalized to negative—DMSO (mock)-treated infected cells—and positive (non-infected cells) controls to determine the normalized antiparasitic activity.

[7] = target: the molecule itself; test: crystal structure; TbPTR1-NADP+-compound 1 ternary complex; sitting drop, room temperature, 1.5-2.5 M sodium acetate, 0.1 M sodium citrate pH 5.0; compound soaked into pre-formed crystals; one homotetramer in the asymmetric unit
[8] = target: the molecule itself; test: crystal structure; LmPTR1-NADP+ ternary complexes with compound 1 and with compound 3; hanging drop, 293 K, 12% PEG 4600, 100 mM sodium acetate pH 5.5, 120-160 mM calcium acetate; compounds soaked into pre-formed crystals; one homotetramer in the asymmetric unit

Q: With `O=c1c(O)c(-c2ccc(O)c(O)c2)oc2ccc(O)cc12` [Compound 3A] as the molecule, how does the “% Inhibition TbPTR1 (50 μM)” value [1] read?
A: 53.1%

Q: What about the IC50 [1] of the same molecule?
A: 38 µM

Q: What about the “% Inhibition LmPTR1 (50 μM)” value [2] of the same molecule?
A: 75.4%

Q: What about the IC50 [2] of the same molecule?
A: 35 µM

Q: What does the source list for `CCc1nc(N)nc(N)c1-c1ccc(Cl)cc1` [pyrimethamine, reference compound]?
A: inhibition at 50 µM [3]: 100%; inhibition at 50 µM [4]: 100%

Q: With `O=c1c(O)c(-c2ccc(O)cc2)oc2ccc(O)cc12` [Compound 2A] as the molecule, how does the “% Inhibition TbPTR1 (50 μM)” value [1] read?
A: 2.6%

Q: What about the “% Inhibition LmPTR1 (50 μM)” value [2] of the same molecule?
A: 10.8%

Q: Which IC50 [5] does the source give for `N=C(N)c1ccc(OCCCCCOc2ccc(C(=N)N)cc2)cc1` [pentamidine, reference compound] here?
A: 0.00155 ± 0.00024 µM

Q: Which IC50 [6] does the source give for `CCCCCCCCCCCCCCCCOP(=O)([O-])OCC[N+](C)(C)C` [miltefosine, reference compound] here?
A: 2.65 ± 0.4 µM

Q: Which “% Inhibition TbPTR1 (50 μM)” value [1] does the source give for `O=c1c(O)c(-c2cccc(O)c2)oc2ccc(O)cc12` [Compound 1A] here?
A: 96.1%

Q: What about the IC50 [1] of the same molecule?
A: 4.3 µM

Q: And the “% Inhibition LmPTR1 (50 μM)” value [2]?
A: 86.2%

Q: What about the IC50 [2] of the same molecule?
A: 12.5 µM

B1: Trypanosoma brucei pteridine reductase 1 (enzyme)
chain: MEAPAAVVTGAAKRIGRAIAVKLHQTGYRVVIHYHNSAEAAVSLADELNKERSNTAVVCQADLTNSNVLPASCEEIINSCFRAFGRCDVLVNNASAFYPTPLVQGDHEDNSNGKTVETQVAELIGTNAIAPFLLTMSFAQRQKGTNPNCTSSNLSIVNLCDAMVDQPCMAFSLYNMGKHALVGLTQSAALELAPYGIRVNGVAPGVSLLPVAMGEEEKDKWRRKVPLGRREASAEQIADAVIFLVSGSAQYITGSIIKVDGGLSLVHA
modifications: oxo-cysteine at residue 168
notes: pteridine reductase 1 (PTR1) of Trypanosoma brucei; Crystallised with the cofactor NADP+ and soaked with compound 1 (small molecules); also called TbPTR1; PTR1; source: expressed and purified as reported in literature [14]
Q: Which “stoichiometry N” value [7] does the source give for B1 here?
A: 4

B2: Leishmania major pteridine reductase 1 (enzyme)
chain: MTAPTVPVALVTGAAKRLGRSIAEGLHAEGYAVCLHYHRSAAEANALSATLNARRPNSAITVQADLSNVATAPVSGADGSAPVTLFTRCAELVAACYTHWGRCDVLVNNASSFYPTPLLRNDEDGHEPCVGDREAMETATADLFGSNAIAPYFLIKAFAHRFAGTPAKHRGTNYSIINMVDAMTNQPLLGYTIYTMAKGALEGLTRSAALELAPLQIRVNGVGPGLSVLVDDMPPAVWEGHRSKVPLYQRDSSAAEVSDVVIFLCSSKAKYITGTCVKVDGGYSLTRA
notes: pteridine reductase 1 (PTR1) of Leishmania major; Crystallised with NADPH/NADP+ and soaked with compound 1 or 3 (small molecules); also called LmPTR1; PTR1; source: expressed and purified as reported in literature [14]
Q: For B2, which “stoichiometry N” value [8] is on record?
A: 4
